Measured values taken from article PMC11149339, “Necessity for higher teicoplanin doses in older adults: a multicenter prospective observational study in China” (BMC Geriatrics, 2024).

Tests used:
[1] = Therapeutic drug monitoring of teicoplanin concentration after drug withdrawal, LC-MS/MS; assay type: in vivo, human; conditions: for TDM Withdraw 8-14d (teicoplanin concentration): 8–14 days after last dose (withdrawal); for TDM Withdraw 8-14d (teicoplanin concentration) / TDM Withdraw 3d (teicoplanin concentration) / TDM Withdraw ≤ 7d (teicoplanin concentration) / TDM Withdraw ≥ 15d (teicoplanin concentration): median [IQR], LC-MS/MS; for TDM Withdraw 3d (teicoplanin concentration): 3 days after last dose (withdrawal); for TDM Withdraw ≤ 7d (teicoplanin concentration): ≤ 7 days after last dose (withdrawal); for TDM Withdraw ≥ 15d (teicoplanin concentration): ≥ 15 days after last dose (withdrawal); for patients with TDM 10–20 mg/L Withdraw ≥ 15d, N (%) / patients with TDM < 10 mg/L Withdraw ≥ 15d, N (%) / patients with TDM > 20 mg/L Withdraw ≥ 15d, N (%): ≥ 15 days after last dose
Procedure: Teicoplanin (Targocid, Sanofi, Dublin, Ireland) was administered intravenously for 30 min. The prescribed dose regimens were at the discretion of treating physicians, and the recommended regimens were not always followed.
Blood samples (5 mL) were collected from the elbow into ethylenediaminetetraacetic acid-containing Vacutainers® (Becton Dickinson, Milan, Italy) in the morning before teicoplanin administration and after drug withdrawal. Samples were promptly refrigerated and centrifuged at 2500 × g for 10 min before 2 mL of supernatant was preserved at -20 °C for subsequent analysis. Teicoplanin concentrations were determined using liquid chromatography-tandem mass spectrometry. The linear range of the method was 1.0–100.0 mg/L, and the lower limit of quantification was 1.0 mg/L. The relative standard deviation of intra- and inter-batch precision was ≤ 10%.
Teicoplanin concentrations were dynamically monitored. Concentrations at 3, ≤ 7, 8–14, and ≥ 15 days after the first dose and within 2 h of the next scheduled dose were recorded as TDM3d, TDM≤7d, TDM8-14d, and TDM≥15d, respectively. Concentrations at 3, ≤ 7, 8–14, and ≥ 15 days after the last teicoplanin dose (withdrawal) were recorded as TDMw3d, TDMw≤7d, TDMw8-14d, and TDMw≥15d. respectively (Fig. 1a). The Cmin target was ≥ 10 mg/L [6, 7, 23]; a concentration < 10 mg/L was considered suboptimal. Average TDM (TDMa) was defined as the mean Cmin after 3 days of treatment.

[2] = Hepatotoxicity during teicoplanin treatment; assay type: in vivo, human
From the text: Patients with abnormal liver function at baseline were excluded. Hepatotoxicity was defined as an increase in the alanine aminotransferase or aspartate aminotransferase concentration to more than three times the upper limit of the institution’s normal reference ranges.

[3] = LR-A + MR-A (200 mg once daily, then 200 mg once daily)
[4] = LR-B + MR-A (400 mg once daily, then 200 mg once daily)
[5] = LR-C + MR-B (400 mg at 12-h intervals, then 400 mg once daily)
[6] = 8–14 days after last dose, LR-A + MR-A
[7] = 8–14 days after last dose, LR-B + MR-A
[8] = 8–14 days after last dose, LR-C + MR-B
[9] = LR-B + MR-B (400 mg once daily, then 400 mg once daily)
[10] = LR-C + MR-C (400 mg at 12-h intervals, then 400 mg twice daily)
[11] = 3 days after last dose, LR-A + MR-A
[12] = 3 days after last dose, LR-B + MR-A
[13] = 3 days after last dose, LR-B + MR-B
[14] = 3 days after last dose, LR-C + MR-B
[15] = 3 days after last dose, LR-C + MR-C
[16] = ≤ 7 days after last dose, LR-A + MR-A
[17] = ≤ 7 days after last dose, LR-B + MR-A
[18] = ≤ 7 days after last dose, LR-B + MR-B
[19] = ≤ 7 days after last dose, LR-C + MR-B
[20] = ≤ 7 days after last dose, LR-C + MR-C

TDM Withdraw 8-14d (teicoplanin concentration) [1, 3]: 5.5[3.8,7.6] mg/L
TDM Withdraw 8-14d (teicoplanin concentration) [1, 4]: 5.0[3.4,6.6] mg/L
TDM Withdraw 8-14d (teicoplanin concentration) [1, 5]: 0[0,2.5] mg/L
TDM Withdraw 8-14d (teicoplanin concentration) ([1]; all patients (N = 204)): 5.3[3.3,7.0] mg/L
patients with TDM 10–20 mg/L Withdraw 8-14d, N (%) [1, 6]: 8(16.0)
patients with TDM < 10 mg/L Withdraw 8-14d, N (%) [1, 6]: 42(84.0)
patients with TDM > 20 mg/L Withdraw 8-14d, N (%) [1, 6]: 0
patients with TDM 10–20 mg/L Withdraw 8-14d, N (%) [1, 7]: 7(14.6)
patients with TDM < 10 mg/L Withdraw 8-14d, N (%) [1, 7]: 40(83.3)
patients with TDM > 20 mg/L Withdraw 8-14d, N (%) [1, 7]: 1(2.1)
patients with TDM 10–20 mg/L Withdraw 8-14d, N (%) [1, 8]: 0
patients with TDM < 10 mg/L Withdraw 8-14d, N (%) [1, 8]: 4(100)
patients with TDM > 20 mg/L Withdraw 8-14d, N (%) [1, 8]: 0
patients having concentrations of 10–20 mg/L, TDMw8-14d ([1]; 8–14 days after last dose, all patients, 15 patients): 14.6%
patients having concentrations exceeding 20 mg/L, TDMw8-14d ([1]; 8–14 days after last dose, all patients, one patient): 1.0%
patients in whom the target concentration (≥ 10 mg/L) was achieved after withdrawal ([1]; 8–14 days after withdrawal, all patients): 15.6%
TDM Withdraw 3d (teicoplanin concentration) [1, 3]: 11.1[8.2,16.5] mg/L
TDM Withdraw 3d (teicoplanin concentration) [1, 4]: 9.6[7.2,13.8] mg/L
TDM Withdraw 3d (teicoplanin concentration) [1, 9]: 16.3[9.4,20.2] mg/L
TDM Withdraw 3d (teicoplanin concentration) [1, 5]: 8.4[5.3,11.7] mg/L
TDM Withdraw 3d (teicoplanin concentration) [1, 10]: 12.4[7.9,15.6] mg/L
TDM Withdraw 3d (teicoplanin concentration) ([1]; all patients (N = 204)): 10.6[7.9,15.6] mg/L
patients with TDM 10–20 mg/L Withdraw 3d, N (%) [1, 11]: 7(53.8)
patients with TDM < 10 mg/L Withdraw 3d, N (%) [1, 11]: 5(38.5)
patients with TDM > 20 mg/L Withdraw 3d, N (%) [1, 11]: 1(7.7)
patients with TDM 10–20 mg/L Withdraw 3d, N (%) [1, 12]: 6(42.9)
patients with TDM < 10 mg/L Withdraw 3d, N (%) [1, 12]: 7(50.0)
patients with TDM > 20 mg/L Withdraw 3d, N (%) [1, 12]: 1(7.1)
patients with TDM 10–20 mg/L Withdraw 3d, N (%) [1, 13]: 3(60)
patients with TDM < 10 mg/L Withdraw 3d, N (%) [1, 13]: 1(20)
patients with TDM > 20 mg/L Withdraw 3d, N (%) [1, 13]: 1(20)
patients with TDM 10–20 mg/L Withdraw 3d, N (%) [1, 14]: 2(25.0)
patients with TDM < 10 mg/L Withdraw 3d, N (%) [1, 14]: 6(75.0)
patients with TDM > 20 mg/L Withdraw 3d, N (%) [1, 14]: 0
patients with TDM 10–20 mg/L Withdraw 3d, N (%) [1, 15]: 4(44.4)
patients with TDM < 10 mg/L Withdraw 3d, N (%) [1, 15]: 4(44.4)
patients with TDM > 20 mg/L Withdraw 3d, N (%) [1, 15]: 1(11.2)
patients having concentrations of 10–20 mg/L, TDMw3d ([1]; 3 days after last dose, all patients, 22 patients): 44.9%
patients having concentrations exceeding 20 mg/L, TDMw3d ([1]; 3 days after last dose, all patients, four patients): 8.2%
patients in whom the target concentration (≥ 10 mg/L) was achieved after withdrawal ([1]; 3 days after withdrawal, all patients): 53.1%
TDM Withdraw ≤ 7d (teicoplanin concentration) [1, 3]: 7.9[5.8,11.4] mg/L
TDM Withdraw ≤ 7d (teicoplanin concentration) [1, 4]: 7.2[5.6,12.0] mg/L
TDM Withdraw ≤ 7d (teicoplanin concentration) [1, 9]: 12.3[7.7,17.0] mg/L
TDM Withdraw ≤ 7d (teicoplanin concentration) [1, 5]: 6.3[3.4,9.4] mg/L
TDM Withdraw ≤ 7d (teicoplanin concentration) [1, 10]: 7.5[3.2,15.6] mg/L
TDM Withdraw ≤ 7d (teicoplanin concentration) ([1]; all patients (N = 204)): 7.4[5.7,12.0] mg/L
patients with TDM 10–20 mg/L Withdraw ≤ 7d, N (%) [1, 16]: 13(28.3)
patients with TDM < 10 mg/L Withdraw ≤ 7d, N (%) [1, 16]: 30(65.2)
patients with TDM > 20 mg/L Withdraw ≤ 7d, N (%) [1, 16]: 3(6.5)
patients with TDM 10–20 mg/L Withdraw ≤ 7d, N (%) [1, 17]: 14(29.8)
patients with TDM < 10 mg/L Withdraw ≤ 7d, N (%) [1, 17]: 31(66.0)
patients with TDM > 20 mg/L Withdraw ≤ 7d, N (%) [1, 17]: 2(4.2)
patients with TDM 10–20 mg/L Withdraw ≤ 7d, N (%) [1, 18]: 2(40)
patients with TDM < 10 mg/L Withdraw ≤ 7d, N (%) [1, 18]: 2(40)
patients with TDM > 20 mg/L Withdraw ≤ 7d, N (%) [1, 18]: 1(20)
patients with TDM 10–20 mg/L Withdraw ≤ 7d, N (%) [1, 19]: 2(18.2)
patients with TDM < 10 mg/L Withdraw ≤ 7d, N (%) [1, 19]: 9(81.8)
patients with TDM > 20 mg/L Withdraw ≤ 7d, N (%) [1, 19]: 0
patients with TDM 10–20 mg/L Withdraw ≤ 7d, N (%) [1, 20]: 2(22.2)
patients with TDM < 10 mg/L Withdraw ≤ 7d, N (%) [1, 20]: 6(66.7)
patients with TDM > 20 mg/L Withdraw ≤ 7d, N (%) [1, 20]: 1(11.1)
patients having concentrations of 10–20 mg/L, TDMw≤7d ([1]; ≤ 7 days after last dose, all patients, 33 patients): 28.0%
patients having concentrations exceeding 20 mg/L, TDMw≤7d ([1]; ≤ 7 days after last dose, all patients, seven patients): 5.9%
patients in whom the target concentration (≥ 10 mg/L) was achieved after withdrawal ([1]; ≤ 7 days after withdrawal, all patients): 33.9%
TDM Withdraw ≥ 15d (teicoplanin concentration) [1, 3]: 4.54[0,7.3] mg/L
TDM Withdraw ≥ 15d (teicoplanin concentration) [1, 4]: 4.1[0,7.0] mg/L
TDM Withdraw ≥ 15d (teicoplanin concentration) [1, 5]: 0[0,0] mg/L
TDM Withdraw ≥ 15d (teicoplanin concentration) [1, 10]: 2.1[0,2.8] mg/L
TDM Withdraw ≥ 15d (teicoplanin concentration) ([1]; all patients (N = 204)): 3.5[0,6.4] mg/L
patients with TDM 10–20 mg/L Withdraw ≥ 15d, N (%) ([1]; LR-A + MR-A): 1(2.4)
patients with TDM < 10 mg/L Withdraw ≥ 15d, N (%) ([1]; LR-A + MR-A): 41(97.6)
patients with TDM > 20 mg/L Withdraw ≥ 15d, N (%) ([1]; LR-A + MR-A): 0
patients with TDM 10–20 mg/L Withdraw ≥ 15d, N (%) ([1]; LR-B + MR-A): 4(10.5)
patients with TDM < 10 mg/L Withdraw ≥ 15d, N (%) ([1]; LR-B + MR-A): 34(89.5)
patients with TDM > 20 mg/L Withdraw ≥ 15d, N (%) ([1]; LR-B + MR-A): 0
patients with TDM 10–20 mg/L Withdraw ≥ 15d, N (%) ([1]; LR-C + MR-B): 0
patients with TDM < 10 mg/L Withdraw ≥ 15d, N (%) ([1]; LR-C + MR-B): 5(100)
patients with TDM > 20 mg/L Withdraw ≥ 15d, N (%) ([1]; LR-C + MR-B): 0
patients with TDM 10–20 mg/L Withdraw ≥ 15d, N (%) ([1]; LR-C + MR-C): 0
patients with TDM < 10 mg/L Withdraw ≥ 15d, N (%) ([1]; LR-C + MR-C): 5(100)
patients with TDM > 20 mg/L Withdraw ≥ 15d, N (%) ([1]; LR-C + MR-C): 0
patients in whom the target concentration (≥ 10 mg/L) was achieved after withdrawal ([1]; ≥ 15 days after withdrawal, all patients): 5.5%
patients in whom teicoplanin remained detectable ([1]; ≥ 15 days after withdrawal, lower limit of quantification 1.0 mg/L): two-thirds
Substance: Teicoplanin
incidence of hepatotoxicity ([2]; TDMa < 10 mg/L (2/65)): 3.1%
incidence of hepatotoxicity ([2]; TDMa = 10–20 mg/L (3/57)): 5.3%
incidence of hepatotoxicity ([2]; TDMa = 20–40 mg/L (1/26)): 3.8%
incidence of hepatotoxicity ([2]; all evaluable patients (6/148), ALT or AST more than three times the upper limit of normal): 4.1%
